Source: ChEMBL document CHEMBL1201862, “PubChem BioAssay data set” (2004)
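Each compound was tested at five concentrations against cells in 96-well plates for 48 hours. GI50 is the concentration that inhibits growth by half.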 Active and inactive are the calls of the source. Rule as the data show it: active = GI50 up to about 1.1 µM and inactive = higher.

Legend:
Assay in all cases: NCI-60 cell line screen, 48 h
[1] = test system: COLO 205
[2] = test system: Malme-3M
[3] = test system: UO-31
[4] = test system: U-251
[5] = test system: SK-MEL-2
[6] = test system: K562
[7] = test system: CCRF-CEM
[8] = test system: OVCAR-8
[9] = test system: M14
[10] = test system: MOLT-4
[11] = test system: OVCAR-4
[12] = test system: UACC-257
[13] = test system: SF-295
[14] = test system: OVCAR-5
[15] = test system: SK-OV-3
[16] = test system: NCI-H23
[17] = test system: SF-268
[18] = test system: KM12

Measured: GI50

Oc1cc(-c2ccc[nH]2)nc2cc3c(cc12)OCO3
inactive: [1] 18.5 µM | [2] 17.1 µM | [3] 56.5 µM | [4] 65.9 µM | [5] 48.3 µM | [6] 17.1 µM | [7] 24.1 µM | [8] 46.7 µM | [9] 32.2 µM | [10] 39.7 µM | [11] 21 µM | [12] 64.7 µM

Cc1cc(N(CCC#N)S(=O)(=O)c2ccccc2)ccc1/C=C1N=C(/C=C/c2ccccc2)OC\1=O
inactive: [1] > 100 µM | [2] > 100 µM | [13] > 100 µM | [14] > 100 µM | [3] 70.8 µM | [4] > 100 µM | [5] > 100 µM | [15] > 100 µM | [6] 94.6 µM | [16] > 100 µM | [7] > 100 µM | [8] > 100 µM | [9] > 100 µM | [17] > 100 µM | [18] > 100 µM | [10] 98.2 µM | [12] > 100 µM

COc1ccc(/C=C2\C(=O)N(C(=O)c3ccc(NC(C)=O)cc3)N=C2C)cc1OC
inactive: [1] > 100 µM | [2] > 100 µM | [13] > 100 µM | [14] > 100 µM | [3] > 100 µM | [5] > 100 µM | [6] > 100 µM | [16] > 100 µM | [7] > 100 µM | [8] > 100 µM | [9] > 100 µM | [17] > 100 µM | [18] > 100 µM | [10] > 100 µM | [11] > 100 µM | [12] > 100 µM

Nc1ncc(CN2CCCC2)c(-c2ccccc2O)n1
inactive: [1] > 750 µM | [2] > 750 µM | [13] > 750 µM | [14] > 750 µM | [3] > 750 µM | [4] > 750 µM | [5] > 100 µM | [15] > 750 µM | [6] 4.51 µM | [16] > 750 µM | [7] 8.39 µM | [8] > 750 µM | [9] > 750 µM | [17] > 750 µM | [18] > 750 µM | [10] > 750 µM | [11] > 750 µM | [12] > 750 µM

CCOC(=O)C1(Cc2ccccc2)CCCCCN1 (stereo not given)
inactive: [1] > 100 µM | [2] 50.1 µM | [13] > 100 µM | [3] > 100 µM | [4] > 100 µM | [15] > 100 µM | [6] > 100 µM | [16] > 100 µM | [8] > 100 µM | [9] > 100 µM | [17] > 100 µM | [11] > 100 µM

C=C1CC2CC(O)CC(C1)C2 (stereo not given)
inactive: [1] > 100 µM | [2] > 100 µM | [13] > 100 µM | [14] > 100 µM | [3] > 100 µM | [4] > 100 µM | [5] > 100 µM | [15] > 100 µM | [16] > 100 µM | [8] > 100 µM | [9] > 100 µM | [17] > 100 µM | [18] > 100 µM | [10] 78.2 µM | [11] > 100 µM | [12] > 100 µM

Cc1cccc2c1C(=O)OC2(C)c1cccc2ccccc12 (stereo not given)
inactive: [2] 25.5 µM | [13] 32.1 µM | [14] > 100 µM | [3] 32.8 µM | [4] 26.2 µM | [5] 23.8 µM | [6] 16.4 µM | [16] 30.8 µM | [7] 17.5 µM | [8] 32.3 µM | [9] 13 µM | [17] 28.4 µM | [18] 27.6 µM | [10] 26.2 µM | [11] 22.4 µM | [12] 34.2 µM

C=CCCCCCCCCC(=O)NS(=O)(=O)c1ccccc1
inactive: [1] > 100 µM | [2] > 100 µM | [13] > 100 µM | [14] > 100 µM | [3] 30.7 µM | [4] 77.4 µM | [5] > 100 µM | [15] > 100 µM | [6] 54.5 µM | [16] > 100 µM | [8] > 100 µM | [9] > 100 µM | [17] > 100 µM | [18] 73.6 µM | [10] 48.6 µM | [11] > 100 µM | [12] > 100 µM

CC(C)c1ccccc1NC(=O)/C(Cl)=C1/Sc2ccccc2NC1=O
inactive: [1] 21.4 µM | [2] 20 µM | [14] 43.3 µM | [3] 32.8 µM | [4] 35 µM | [5] 15.7 µM | [15] 18.4 µM | [6] 14.8 µM | [16] 19.6 µM | [7] 24.6 µM | [8] 43.4 µM | [9] 22.4 µM | [17] 34 µM | [10] 24.8 µM | [11] 21.9 µM

COc1ccc(C=O)c([N+](=O)[O-])c1
inactive: [1] 53.3 µM | [2] 21.5 µM | [13] 21 µM | [3] 37.7 µM | [4] 13.2 µM | [5] 35.2 µM | [15] > 100 µM | [6] 3.71 µM | [16] > 100 µM | [7] 4.51 µM | [8] 31.6 µM | [9] 38.1 µM | [17] > 100 µM | [18] 22.8 µM | [10] 4.31 µM | [11] 76.6 µM | [12] 37.7 µM

CCOC(=O)C1S/C(=N/c2ccc(Cl)cc2C)N=C1C (stereo not given)
inactive: [1] 17.1 µM | [2] 20.2 µM | [13] 23.8 µM | [14] 18.1 µM | [3] 17.3 µM | [4] 15.8 µM | [5] 16.4 µM | [6] 17.7 µM | [16] 16.5 µM | [8] 28.1 µM | [9] 19.5 µM | [17] 15.7 µM | [18] 15.5 µM | [10] 9.77 µM | [11] 19.9 µM | [12] 22.2 µM

Nc1nc(N)c2ncn(CCCC(c3ccccc3)P(=O)(O)O)c2n1 (stereo not given)
inactive: [1] > 100 µM | [2] > 100 µM | [13] > 100 µM | [14] > 100 µM | [3] > 100 µM | [4] > 100 µM | [5] > 100 µM | [15] > 100 µM | [6] > 100 µM | [16] 19.2 µM | [7] > 100 µM | [8] > 100 µM | [9] > 100 µM | [17] > 100 µM | [18] > 100 µM | [12] > 100 µM

CC1(CO)OC1COCc1ccccc1 (stereo not given)
inactive: [1] > 100 µM | [2] > 100 µM | [13] > 100 µM | [14] > 100 µM | [3] > 100 µM | [4] > 100 µM | [5] > 100 µM | [15] > 100 µM | [6] > 100 µM | [16] > 100 µM | [7] > 100 µM | [8] > 100 µM | [9] > 100 µM | [17] > 100 µM | [18] > 100 µM | [10] > 100 µM | [12] > 100 µM
